Results: patent publication US5608091A, “Quinizarin compound, method for production thereof, and use therefor” (Nippon Shokubai Co., Ltd., priority 1993, dated 1997)

What was measured:
Type in all cases: physicochemical
[1] = Visible absorption spectrum (λmax, ε); conditions: for ε: in M-1 cm-1 (unit assumed)
[2] = Solubility in toluene and methyl ethyl ketone, three-point scale
Source text: In these tables, the solubility is rated on the three-point scale, wherein Δ stands for a solubility of less than 1% by weight, .largecircle. for a solubility in the approximate range of 1 to 3% by weight, and .circleincircle. for a solubility of not less than 3% by weight.

[3] = Color tone of the dye; conditions: Tables 1-9

Row | SMILES | λ max ([1]; in chloroform) | ε ([1]; in chloroform, at λ max) | Color tone [3] | ε ([1]; in ethyl cellosolve) | λ max ([1]; in toluene) | ε ([1]; in toluene) | Solubility ([2]; in toluene) | λ max ([1]; in methanol) | ε ([1]; in methanol) | Solubility in methyl ethyl ketone [2] | Solubility in toluene ([2]; in toluene)
1 | CC(C)c1cccc(C(C)C)c1Nc1c(F)c(F)c2c(c1F)C(=O)c1c(O)ccc(O)c1C2=O [(25)] | 530 nm | 12800 | Magenta |  |  |  |  |  |  | .largecircle. (a solubility in the approximate range of 1 to 3% by weight) | .circleincircle. (a solubility of not less than 3% by weight)
2 | O=C1c2c(O)ccc(O)c2C(=O)c2c(F)c(Nc3ccc([N+](=O)[O-])cc3)c(F)c(F)c21 [(12)] | 521 nm | 16300 | Magenta |  |  |  |  |  |  | Δ (a solubility of less than 1% by weight) | Δ (a solubility of less than 1% by weight)
3 | CCOC(=O)c1cccc(Nc2c(F)c3c(c(F)c2Sc2ccccc2)C(=O)c2c(O)ccc(O)c2C3=O)c1 [(115)] | 540 nm | 17000 |  |  |  |  |  |  |  |  | 
4 | O=C1c2c(O)ccc(O)c2C(=O)c2c(F)c(Nc3ccccc3)c(Nc3ccccc3)c(F)c21 [(120)] | 648 nm | 19800 | Cyan |  |  |  |  |  |  | Δ (a solubility of less than 1% by weight) | Δ (a solubility of less than 1% by weight)
5 | N#Cc1ccc(Nc2c(F)c(F)c3c(c2F)C(=O)c2c(O)ccc(O)c2C3=O)cc1 [(10)] | 523 nm | 20600 | Magenta |  |  |  |  |  |  | Δ (a solubility of less than 1% by weight) | Δ (a solubility of less than 1% by weight)
6 | CCCCOC(=O)c1ccccc1Nc1c(F)c(F)c2c(c1F)C(=O)c1c(O)ccc(O)c1C2=O [(5)] | 530 nm | 8600 | Magenta |  |  |  |  |  |  | .circleincircle. (a solubility of not less than 3% by weight) | .circleincircle. (a solubility of not less than 3% by weight)
7 | CC(C)(C)c1ccc(Nc2c(F)c(F)c3c(c2F)C(=O)c2c(O)ccc(O)c2C3=O)cc1 [(13)] | 540 nm | 11900 | Magenta |  |  |  |  |  |  | .largecircle. (a solubility in the approximate range of 1 to 3% by weight) | .largecircle. (a solubility in the approximate range of 1 to 3% by weight)
8 | CCOC(=O)c1cccc(Nc2c(F)c(F)c3c(c2F)C(=O)c2c(O)ccc(O)c2C3=O)c1 [(4)] | 527 nm | 15300 | Magenta |  |  |  |  |  |  | .largecircle. (a solubility in the approximate range of 1 to 3% by weight) | .largecircle. (a solubility in the approximate range of 1 to 3% by weight)
9 | COc1cccc(Nc2c(F)c(F)c3c(c2F)C(=O)c2c(O)ccc(O)c2C3=O)c1 [(16)] | 532 nm | 16300 | Magenta |  |  |  |  |  |  | .largecircle. (a solubility in the approximate range of 1 to 3% by weight) | .largecircle. (a solubility in the approximate range of 1 to 3% by weight)
10 | CCCCCCCCOC(=O)c1cccc(Nc2c(F)c(F)c3c(c2F)C(=O)c2c(O)ccc(O)c2C3=O)c1 [(8)] | 526 nm | 17600 | Magenta |  |  |  |  |  |  | .largecircle. (a solubility in the approximate range of 1 to 3% by weight) | .largecircle. (a solubility in the approximate range of 1 to 3% by weight)
11 | CCCCCCCCOc1c(F)c2c(c(F)c1Nc1cccc(C(=O)OCC)c1)C(=O)c1c(O)ccc(O)c1C2=O [(34)] | 531 nm | 12400 | Magenta |  |  |  |  |  |  | .circleincircle. (a solubility of not less than 3% by weight) | .circleincircle. (a solubility of not less than 3% by weight)
12 | O=C1c2c(O)ccc(O)c2C(=O)c2c(F)c(Oc3ccccc3)c(Nc3c(Cl)cccc3Cl)c(F)c21 [(110)] | 521.0 nm | 17900 |  |  |  |  |  |  |  |  | 
13 | CC(C)c1cccc(C(C)C)c1Nc1ccc2c(c1)C(=O)c1c(O)ccc(O)c1C2=O [(99)] |  |  |  |  | 560 nm | 14850 | Not less than 3 % by weight |  |  |  | 
14 | O=C1c2c(O)ccc(O)c2C(=O)c2c(F)c(Nc3ccc(S(=O)(=O)O)cc3)c(F)c(F)c21 [(27)] |  |  |  |  |  |  |  | 521.5 nm | 10600 |  | 

Further lines, with some results ahead:

Row | λ max ([1]; in chloroform) | ε ([1]; in chloroform, at λ max) | Color tone [3] | ε ([1]; in ethyl cellosolve) | λ max ([1]; in toluene) | ε ([1]; in toluene) | Solubility ([2]; in toluene) | λ max ([1]; in methanol) | ε ([1]; in methanol) | SMILES | Solubility in methyl ethyl ketone [2] | Solubility in toluene ([2]; in toluene)
15 | 661 nm | 15600 | Cyan |  |  |  |  |  |  | COc1ccccc1Nc1c(F)c2c(c(F)c1Nc1ccccc1OC)C(=O)c1c(O)ccc(O)c1C2=O [(131)] | .largecircle. (a solubility in the approximate range of 1 to 3% by weight) | .largecircle. (a solubility in the approximate range of 1 to 3% by weight)
16 | 644 nm | 20100 | Cyan |  |  |  |  |  |  | CCOC(=O)c1cccc(Nc2c(F)c3c(c(F)c2Nc2cccc(C(=O)OCC)c2)C(=O)c2c(O)ccc(O)c2C3=O)c1 [(121)] | .largecircle. (a solubility in the approximate range of 1 to 3% by weight) | .largecircle. (a solubility in the approximate range of 1 to 3% by weight)
17 | 504 nm | 15100 | Cinnabar |  |  |  |  |  |  | COc1ccc(Sc2c(F)c3c(c(F)c2Sc2ccc(OC)cc2)C(=O)c2c(O)ccc(O)c2C3=O)cc1 [(302)] | .largecircle. (a solubility in the approximate range of 1 to 3% by weight) | .largecircle. (a solubility in the approximate range of 1 to 3% by weight)
18 | 649 nm | 13400 | Cyan |  |  |  |  |  |  | COc1ccc(Nc2c(F)c3c(c(F)c2Nc2ccc(OC)cc2)C(=O)c2c(O)ccc(O)c2C3=O)cc1 [(132)] | .largecircle. (a solubility in the approximate range of 1 to 3% by weight) | .largecircle. (a solubility in the approximate range of 1 to 3% by weight)
19 | 542 nm | 12300 | Purple |  |  |  |  |  |  | Nc1c(Sc2ccccc2)c(Sc2ccccc2)c(F)c2c1C(=O)c1c(O)ccc(O)c1C2=O [(296)] | .largecircle. (a solubility in the approximate range of 1 to 3% by weight) | .largecircle. (a solubility in the approximate range of 1 to 3% by weight)
20 | 504 nm | 14600 | Orange |  |  |  |  |  |  | CCCCCCCCSc1c(F)c2c(c(F)c1SCCCCCCCC)C(=O)c1c(O)ccc(O)c1C2=O [(304)] | .largecircle. (a solubility in the approximate range of 1 to 3% by weight) | .largecircle. (a solubility in the approximate range of 1 to 3% by weight)
21 | 692 nm | 15900 | Cyan |  |  |  |  |  |  | O=C1c2c(O)ccc(O)c2C(=O)c2c(Nc3ccccc3)c(Sc3ccccc3)c(Sc3ccccc3)c(Nc3ccccc3)c21 [(297)] | .largecircle. (a solubility in the approximate range of 1 to 3% by weight) | .largecircle. (a solubility in the approximate range of 1 to 3% by weight)
22 | 660 nm | 26700 | Cyan |  |  |  |  |  |  | CC(C)(C)c1ccc(Nc2c(F)c3c(c(F)c2Nc2ccc(C(C)(C)C)cc2)C(=O)c2c(O)ccc(O)c2C3=O)cc1 [(130)] | .largecircle. (a solubility in the approximate range of 1 to 3% by weight) | .largecircle. (a solubility in the approximate range of 1 to 3% by weight)
23 | 614 nm | 14700 | Blue |  |  |  |  |  |  | CCCCOC(=O)c1ccccc1Nc1c(F)c2c(c(F)c1Nc1ccccc1C(=O)OCCCC)C(=O)c1c(O)ccc(O)c1C2=O [(122)] | .largecircle. (a solubility in the approximate range of 1 to 3% by weight) | .largecircle. (a solubility in the approximate range of 1 to 3% by weight)
24 | 508 nm | 14000 | Orange |  |  |  |  |  |  | O=C1c2c(O)ccc(O)c2C(=O)c2c(F)c(SC3CCCCC3)c(SC3CCCCC3)c(F)c21 [(306)] | .largecircle. (a solubility in the approximate range of 1 to 3% by weight) | .circleincircle. (a solubility of not less than 3% by weight)
25 | 651 nm | 13400 | Cyan |  |  |  |  |  |  | COc1cccc(Nc2c(F)c3c(c(F)c2Nc2cccc(OC)c2)C(=O)c2c(O)ccc(O)c2C3=O)c1 [(133)] | .largecircle. (a solubility in the approximate range of 1 to 3% by weight) | .largecircle. (a solubility in the approximate range of 1 to 3% by weight)
26 | 506 nm | 11300 | Orange |  |  |  |  |  |  | CCCCCCSc1c(F)c2c(c(F)c1SCCCCCC)C(=O)c1c(O)ccc(O)c1C2=O [(303)] | .largecircle. (a solubility in the approximate range of 1 to 3% by weight) | .largecircle. (a solubility in the approximate range of 1 to 3% by weight)
27 | 521 nm | 13200 | Cinnabar |  |  |  |  |  |  | N#Cc1c(F)c(F)c(Sc2c(F)c3c(c(F)c2Sc2c(F)c(F)c(C#N)c(F)c2F)C(=O)c2c(O)ccc(O)c2C3=O)c(F)c1F [(300)] | Δ (a solubility of less than 1% by weight) | Δ (a solubility of less than 1% by weight)
28 |  |  |  | 29200 |  |  |  |  |  | CC(C)c1cccc(C(C)C)c1Nc1c(F)c2c(c(Nc3c(C(C)C)cccc3C(C)C)c1Nc1c(C(C)C)cccc1C(C)C)C(=O)c1c(O)ccc(O)c1C2=O [Dye (245), 5,6,7-tris(2,6-diisopropylanilino)-8-fluoroquinizarin] |  | 
